From ChEMBL document CHEMBL5532637, “Antimicrobial activity of natural and semi-synthetic carbazole alkaloids” (Eur J Med Chem, 2023)
In brackets after ≈: the same amount, converted by molar mass.

Tests used:
Bacillus subtilis [1] = assay: Antimicrobial activity against Bacillus subtilis assessed as zone of inhibition incubated for 24 hrs by disc diffusion method; format: functional
Escherichia coli [2] = assay: Antimicrobial activity against Escherichia coli assessed as zone of inhibition incubated for 24 hrs by disc diffusion method; format: functional
Shigella flexneri = assay: Antimicrobial activity against Shigella flexneri assessed as zone of inhibition incubated for 24 hrs by disc diffusion method; format: functional
Aspergillus niger = assay: Antimicrobial activity against Aspergillus niger assessed as zone of inhibition incubated for 48 hrs by disc diffusion method; format: functional
Candida albicans [3] = assay: Antimicrobial activity against Candida albicans assessed as zone of inhibition incubated for 48 hrs by disc diffusion method; format: functional
Staphylococcus aureus [4] = assay: Antimicrobial activity against Staphylococcus aureus assessed as zone of inhibition incubated for 24 hrs by disc diffusion method; format: functional
Nakaseomyces glabratus [5] = assay: Antifungal activity against Candida glabrata assessed as inhibition of fungal growth incubated for 24 hrs by microplate reader assay; format: functional
Candida albicans [6] = assay: Antifungal activity against Candida albicans assessed as inhibition of fungal growth incubated for 24 hrs by microplate reader assay; format: functional
Candida parapsilosis [7] = assay: Antifungal activity against Candida parapsilosis assessed as inhibition of fungal growth incubated for 24 hrs by microplate reader assay; format: functional; conditions: Lodderomyces parapsilosis
Escherichia coli [8] = assay: Antibacterial activity against Escherichia coli ATCC 25922 assessed as zone of inhibition at 40 ug/ml incubated for 24 hrs by disk diffusion method; format: functional; conditions: read-out: IZ
Klebsiella pneumoniae [9] = assay: Antibacterial activity against Klebsiella pneumoniae ATCC 13883 assessed as zone of inhibition at 40 ug/ml incubated for 24 hrs by disk diffusion method; format: functional; conditions: read-out: IZ
Bacillus subtilis [10] = assay: Antibacterial activity against Bacillus subtilis ATCC 6633 assessed as zone of inhibition at 40 ug/ml incubated for 24 hrs by disk diffusion method; format: functional; conditions: read-out: IZ
Staphylococcus aureus [11] = assay: Antibacterial activity against Staphylococcus aureus ATCC 6538 assessed as zone of inhibition at 40 ug/ml incubated for 24 hrs by disk diffusion method; format: functional; conditions: read-out: IZ
Pasteurella multocida = assay: Antibacterial activity against Pasteurella multocida assessed as inhibition of bacterial growth by agar well diffusion method; format: functional
Bacillus subtilis [12] = assay: Antibacterial activity against Bacillus subtilis assessed as inhibition of bacterial growth by agar well diffusion method; format: functional
Bacillus subtilis [13] = assay: Antibacterial activity against Bacillus subtilis NRS-744 assessed as inhibition of bacterial growth incubated for 18 to 24 hrs by microbroth dilution method; format: functional; conditions: time 18-24 hrs
Staphylococcus aureus [14] = assay: Antibacterial activity against Staphylococcus aureus NRRL B-767 assessed as inhibition of bacterial growth incubated for 18 to 24 hrs by microbroth dilution method; format: functional; conditions: time 18-24 hrs
HeLa = assay: Cytotoxicity against human HeLa cells incubated for 48 hrs by sulforhodamine B assay; format: functional
A549 = assay: Cytotoxicity against human A549 cells incubated for 48 hrs by sulforhodamine B assay; format: functional
Staphylococcus aureus [15] = assay: Antimicrobial activity against methicillin-resistant Staphylococcus aureus assessed as inhibition of microbial growth incubated for 18 to 24 hrs by agar broth microplate assay; format: functional; conditions: time 18-24 hrs, read-out: MIC100
Salmonella typhimurium = assay: Antimicrobial activity against Salmonella typhimurium assessed as inhibition of microbial growth incubated for 18 to 24 hrs by agar broth microplate assay; format: functional, Salmonella enterica subsp. enterica serovar Typhimurium; conditions: Salmonella enterica; time 18-24 hrs; read-out: MIC100
Candida albicans [16] = assay: Antimicrobial activity against Candida albicans assessed as inhibition of microbial growth incubated for 18 to 24 hrs by agar broth microplate assay; format: functional; conditions: time 18-24 hrs, read-out: MIC100
Pichia kudriavzevii [17] = assay: Antifungal activity against Candida krusei ATCC 6258 assessed as inhibition of fungal growth incubated for 24 hrs by microtiter plate reader assay; format: functional
Saccharomyces cerevisiae = assay: Antifungal activity against Saccharomyces cerevisiae ATCC 9763 assessed as inhibition of fungal growth incubated for 24 hrs by microtiter plate reader assay; format: functional
Candida albicans [18] = assay: Antifungal activity against Candida albicans clinical isolate DSY294 assessed as inhibition of fungal growth by broth microdilution method; format: functional
Escherichia coli [19] = assay: Antibacterial activity against Escherichia coli assessed as inhibition of bacterial growth by broth microdilution method; format: functional
Nakaseomyces glabratus [20] = assay: Antifungal activity against Candida glabrata MTCC 3814 assessed as inhibition of fungal growth by broth microdilution method; format: functional
Candida albicans [21] = assay: Antifungal activity against Candida albicans clinical isolate DSY296 assessed as inhibition of fungal growth by broth microdilution method; format: functional
Klebsiella pneumoniae [22] = assay: Antibacterial activity against Klebsiella pneumoniae assessed as inhibition of bacterial growth by broth microdilution method; format: functional
Candida tropicalis = assay: Antifungal activity against Candida tropicalis MTCC 9038 assessed as inhibition of fungal growth by broth microdilution method; format: functional
Pseudomonas aeruginosa = assay: Antibacterial activity against Pseudomonas aeruginosa assessed as inhibition of bacterial growth by broth microdilution method; format: functional
Candida albicans [23] = assay: Antifungal activity against Candida albicans SC5314 assessed as inhibition of fungal growth by broth microdilution method; format: functional
Candida albicans [24] = assay: Antifungal activity against Candida albicans MTCC 3017 assessed as inhibition of fungal growth by broth microdilution method; format: functional
Candida albicans [25] = assay: Antifungal activity against Candida albicans clinical isolate Gu5 assessed as inhibition of fungal growth by broth microdilution method; format: functional
Pichia kudriavzevii [26] = assay: Antifungal activity against Candida krusei MTCC 9215 assessed as inhibition of fungal growth by broth microdilution method; format: functional
Candida albicans [27] = assay: Antifungal activity against Candida albicans clinical isolate Gu4 assessed as inhibition of fungal growth by broth microdilution method; format: functional
Staphylococcus aureus [28] = assay: Antibacterial activity against Staphylococcus aureus assessed as inhibition of bacterial growth by broth microdilution method; format: functional
Candida parapsilosis [29] = assay: Antifungal activity against Candida parapsilosis MTCC 7043 assessed as inhibition of fungal growth by broth microdilution method; format: functional; conditions: Lodderomyces parapsilosis
Escherichia coli [30] = assay: Antibacterial activity against Escherichia coli PTCC 1330 assessed as inhibition of bacterial growth by serial dilution assay; format: functional
Staphylococcus aureus [31] = assay: Antibacterial activity against Staphylococcus aureus PTCC 1133 assessed as inhibition of bacterial growth by serial dilution assay; format: functional
Staphylococcus aureus [32] = assay: Antibacterial activity against Staphylococcus aureus assessed as zone of inhibition by filter paper disk-agar diffusion method; format: functional
[33] = tested on: Mycobacterium tuberculosis; assay: Antibacterial activity against Mycobacterium tuberculosis assessed as inhibition of bacterial growth; format: functional
Bacillus cereus = assay: Antibacterial activity against Bacillus cereus assessed as inhibition of bacterial growth; format: functional, organism-based

In the case of Cn1c2ccccc2c2cc(-c3cc(-c4ccccn4)nc(N)n3)ccc21, the “inhibition zone (IZ)” value (Bacillus subtilis [1]) is reported as 18 mm, the “inhibition zone (IZ)” value (Escherichia coli [2]) is reported as 10 mm and the “inhibition zone (IZ)” value (Shigella flexneri) is reported as 18 mm. For the same molecule, the “inhibition zone (IZ)” value (Aspergillus niger) was 12 mm, the “inhibition zone (IZ)” value (Candida albicans [3]) was 15 mm and the “inhibition zone (IZ)” value (Staphylococcus aureus [4]) was 18 mm.
Work on COc1ccc(CNCCCn2c3ccccc3c3ccccc32)cc1 yielded an MIC80 (Nakaseomyces glabratus [5]) of 4 µg/mL (≈ 11.6 µM), an MIC80 (Candida albicans [6]) of 16 µg/mL (≈ 46.4 µM) and an MIC80 (Candida parapsilosis [7]) of 8 µg/mL (≈ 23.2 µM).
In the case of CCn1c2ccccc2c2cc(-c3cc(=O)c4ccccc4o3)ccc21, the zone of inhibition at 40 µg/mL (Escherichia coli [8]) is reported as 29 mm, the zone of inhibition at 40 µg/mL (Klebsiella pneumoniae [9]) is reported as 27 mm and the zone of inhibition at 40 µg/mL (Bacillus subtilis [10]) is reported as 25 mm. It also gave a zone of inhibition at 40 µg/mL (Staphylococcus aureus [11]) of 24 mm.
With C/C(=N/Nc1ccccc1)C1CCCc2c1n(C)c1c([N+](=O)[O-])cc([N+](=O)[O-])cc21 (stereo not drawn) the MIC (Pasteurella multocida) was 1.8 µg/mL (≈ 4.42 µM) and the MIC (Bacillus subtilis [12]) was 1.8 µg/mL (≈ 4.42 µM).
Molecule CCn1c2ccccc2c2cc(NC(=O)COc3cccc4cccnc34)ccc21 has an MIC (Bacillus subtilis [13]) of 31.2 µg/mL (≈ 79 µM) and an MIC (Staphylococcus aureus [14]) of 31.2 µg/mL (≈ 79 µM).
In the case of CC(C)=CCc1ccc2c([nH]c3cc(O)c(C=O)cc32)c1O, the IC (HeLa) is reported as 1.91 µg/mL and the IC (A549) is reported as 5.25 µg/mL.
In the case of O=c1[nH]n(-c2ccccc2)c(=O)c2cc3c(cc12)[nH]c1ccc([N+](=O)[O-])cc13, the MIC (Staphylococcus aureus [15]) is reported as 12 µg/mL, the MIC (Salmonella typhimurium) is reported as > 512 µg/mL and the MIC (Candida albicans [16]) is reported as 32 µg/mL.
With FC(F)(F)Oc1ccc2c3c([nH]c2c1)C(NCc1ccc(Br)cc1)CCC3 (stereo not drawn) the MIC50 (Pichia kudriavzevii [17]) was 4.7 µM (≈ 2.06 µg/mL) and the MIC50 (Saccharomyces cerevisiae) was 1.5 µM (≈ 0.659 µg/mL).
COc1cc2c(cc1O)[nH]c1c3c(c(C)cc12)OC(C)(C)C=C3 was tested, and the MIC90 (Candida albicans [18]) was 12.5 µg/mL (≈ 40.4 µM), the MIC90 (Escherichia coli [19]) was > 100 µg/mL and the MIC90 (Nakaseomyces glabratus [20]) was 12.5 µg/mL (≈ 40.4 µM). It also gave an MIC90 (Candida albicans [21]) of 12.5 µg/mL (≈ 40.4 µM), an MIC90 (Klebsiella pneumoniae [22]) of 3.12 µg/mL (≈ 10.1 µM) and an MIC90 (Candida tropicalis) of 12.5 µg/mL (≈ 40.4 µM). For the same molecule, the MIC90 (Pseudomonas aeruginosa) was > 100 µg/mL, the MIC90 (Candida albicans [23]) was 12.5 µg/mL (≈ 40.4 µM) and the MIC90 (Candida albicans [24]) was 12.5 µg/mL (≈ 40.4 µM). The MIC90 (Candida albicans [25]) was 12.5 µg/mL (≈ 40.4 µM), the MIC90 (Pichia kudriavzevii [26]) was 12.5 µg/mL (≈ 40.4 µM) and the MIC90 (Candida albicans [27]) was 12.5 µg/mL (≈ 40.4 µM). For the same molecule, the MIC90 (Staphylococcus aureus [28]) was 3.12 µg/mL (≈ 10.1 µM) and the MIC90 (Candida parapsilosis [29]) was 12.5 µg/mL (≈ 40.4 µM).
Work on CCC(O)Cn1cc(Cn2c3ccccc3c3ccccc32)nn1 (stereo not drawn) yielded an MIC50 (Escherichia coli [30]) of 3.12 µg/mL (≈ 9.75 µM) and an MIC50 (Staphylococcus aureus [31]) of 1.56 µg/mL (≈ 4.88 µM).
With COc1cc2c(cc1O)[nH]c1cc(O)c(C=O)cc12 [CLAULANSINE J] the “inhibition zone (IZ)” value (Staphylococcus aureus [32]) was 14.2 mm.
In the case of Cc1cc2c([nH]c3ccc4c(c32)C=CC(C)(C)O4)c(-c2c(O)c(C)cc3c2[nH]c2ccc4c(c23)C=CC(C)(C)O4)c1O [CLAUSENAWALLINE A], the MIC [33] is reported as 12.5 µg/mL (≈ 22.5 µM).
With Cc1cc2c([nH]c3ccccc32)c2c1OC(C)(C)C=C2 [GRINIMIBINE] the IC50 (Bacillus cereus) was 3.4 µM.
